This note sets out measurements from article PMC9575645 (Signal Transduction and Targeted Therapy, 2022).

The test system of one data set is Vero E6. The data set can be described thus: Cytotoxicity, MTT assay, Vero E6. Format: cell-based, African green monkey. As for the experimental part:
(§1) The cytotoxic effects of the chemicals and their solvents were tested by the MTT assay,[44] and its procedure is described in Supplementary Information.
(§2) The cytotoxic effects of the chemicals and their solvents used were tested by the MTT assay as described previously.^10 In brief, the chemicals were dissolved in DMSO to a stock concentration of 10 mM, and then freshly serially diluted in serum-free medium before being added to cell culture monolayers. The absorbance was measured using an enzyme-linked immunosorbent assay (ELISA) reader at an optical density (OD) of 570 nm. The percent cell viability was calculated using the following formula, [(ODsample˗ODblank)/(ODcontrol˗ODblank)] × 100%. According to the cell cytotoxicity data, dose-response curves were generated for the calculation of CC50 using GraphPad Prism software version 8.4.2.

Another data set deals with HRT18G. The data set can be described thus: Cytotoxicity, MTT assay, HRT18G. Format: cell-based, human. As for the experimental part: as §1, §2
Another data set concerns palmitic and oleic acids. Nature of the data set: LC-MS quantification of palmitic and oleic acids in IAV-infected A549 cells. As to conditions: 20 μM. Format: cell-based, human. The protocol:
The difference in saturated and unsaturated FFAs between the untreated and the treated cells after infection with IAV or SARS-CoV-2 was determined by GC-FID and LC-MS as previously reported,[11] and detailed procedures are described in Supplementary Information.
The amount of palmitic and oleic acids in the untreated and treated cells after infection with IAV was determined by LC-MS. In brief, A549 cells infected with IAV PR8 strain at an MOI of 0.1 were vehicle-treated, or treated with 20 μM atglistatin or CAY10499 at 12 hpi, or treated with 20 μM atglistatin or CAY10499 and then supplemented individually with 100 μM of PA or OA at 12 hpi, and incubated further for 12 h. Afterward, cells were collected for FFA extraction. 700 μL Chloroform : Methanol (2:1) was added to the freeze cell pellets and vortexed for 1 min. The mixture was sonicated for 5 min and re-vortexed for 1 min. The mixture was centrifuged at 13,000 rpm for 8 min, and the lower organic layer was collected and transferred into a micro-tube. Using vacuum concentrator, the extracts were dried. Finally, the extracts were re-dissolved by methanol and centrifuged at 13,000 rpm for 5 min. The supernatants were transferred into LC-MS vials. […] The standard compounds as well as extracted samples were analyzed in selective ion monitoring (SIM) mode using the ESI source by monitoring the H^- adducts ions. […]

For a further data set, the system named is lipid droplets (LDs). The data set can be described thus: BODIPY lipid droplet immunofluorescence in SARS-CoV-2-infected Vero E6 cells. Format: cell-based, African green monkey. As to conditions: SARS-CoV-2-infected cells, MOI = 0.1 FFU; 20 µM. As for the experimental part:
To characterize the dynamics of LD formation, apoptotic and necroptotic cells, and virus infectivity, an IFA was performed with the […], MDCK, Caco-2, Vero E6, MA104, MARC-145, LLC-PK, and HRT-18G cells, infected with or without each virus, and treated with vehicles or chemicals at the different time points (Table S3), or transfected with siRNA or scrambled siRNA as described above.^ 16^,27^,28 Briefly, cells were prepared in 8-well chamber slides infected with IAV, SARS-CoV-2, BCoV, PEDV, RVA, PRRSV, or PSaV at an MOI of 1 (IAV), or MOI of 0.1 (SARS-CoV-2, BCoV, PEDV, RVA, PRRSV, or PSaV) and treated with or without chemicals. […] Subsequently, cells were washed thrice with PBS (pH 7.4) and mounted with SlowFade Gold antifade reagent containing 1 × DAPI solution (Molecular Probes) for nucleus staining, observed with a LSM 800 confocal microscope, and analysed using Zen Blue Software 2.6 (Carl Zeiss; Jena, Germany).
The number and size of intracellular LDs were measured as described previously.^28 Briefly, four images were taken of each sample and converted into a pixel unit, and the data were processed and quantified using Adobe Photoshop CS6. […] The results were expressed as relative values, where the average number and size of pixels of positive color in virus-infected groups were normalized to those of the mock-treated, mock-infected control.

Data set [1] deals with Species A Rotavirus (NCDV). The note with it: for IC50: Species A Rotavirus (NCDV), MA104 cells.
Data set [2] relates to Porcine respiratory reproductive syndrome virus (LMY). As to conditions: for IC50: PRRSV (LMY), MARC-145 cells.

As for `CN(C)C(=O)Nc1cccc(-c2ccc(N(C)C)cc2)c1` [Atglistatin], the CC50 – broadly, the concentration at which the toxic effect on the cells reaches its halfway point – with Vero E6 amounted to 226 ± 2.4 µM; with HRT18G it was 182 ± 2.6 µM. In the data set on palmitic and oleic acids, the “levels of PA and OA (LC-MS)” value is “significantly reduced”. In addition, the “intracellular LDs (BODIPY)” value in the data set with lipid droplets (LDs) is listed as “Retention of LDs”. For the same molecule, the figures for the “SI (CC50/IC50)” value in data set [1] and in data set [2] were 32 and 84, respectively. Besides, the IC50 – broadly, the concentration that inhibits the measured activity by half – is 6.7 ± 0.49 µM in data set [1] and 2.53 ± 0.18 µM in data set [2].
Regarding `COc1nn(-c2ccc(NC(=O)OCc3ccccc3)c(C)c2)c(=O)o1` [CAY10499], the CC50 in the data set with Vero E6 is 102 ± 8.3 µM; in the data set on HRT18G, 104 ± 9.1 µM. Besides, the “levels of PA and OA (LC-MS)” value in the data set with palmitic and oleic acids was “significantly reduced”. The “intracellular LDs (BODIPY)” value in the data set on lipid droplets (LDs) is “Retention of LDs”. Moreover, the “SI (CC50/IC50)” value in data set [1] turned out to be 5; in data set [2], 24. For the same molecule, the IC50 amounted to 20.9 ± 5.06 µM in data set [1] and 4.21 ± 0.55 µM in data set [2].
